Key:
[1] = target: Mitogen-activated protein kinase 1 (Homo sapiens) (UniProt P28482); assay: Inhibition of ERK2 (unknown origin) assessed as residual activity at 100 nM by KINOMEscan analysis relative to control
[2] = target: Tyrosine-protein kinase ABL1 (Homo sapiens) (UniProt P00519); assay: Inhibition of phosphorylated ABL1 (unknown origin) assessed as residual activity at 100 nM by KINOMEscan analysis relative to control
[3] = target: Citron Rho-interacting kinase (Homo sapiens) (UniProt O14578); assay: Inhibition of CIT (unknown origin) assessed as residual activity at 100 nM by KINOMEscan analysis relative to control
[4] = target: Serine/threonine-protein kinase pim-1 (Homo sapiens) (UniProt P11309); assay: Inhibition of PIM1 (unknown origin) assessed as residual activity at 100 nM by KINOMEscan analysis relative to control
[5] = target: T1, Ephrin type-B receptor 2 (Homo sapiens) (UniProt P29323); assay: Inhibition of EPHB2 (unknown origin) assessed as residual activity at 100 nM by KINOMEscan analysis relative to control
T1 sequence (whole entry): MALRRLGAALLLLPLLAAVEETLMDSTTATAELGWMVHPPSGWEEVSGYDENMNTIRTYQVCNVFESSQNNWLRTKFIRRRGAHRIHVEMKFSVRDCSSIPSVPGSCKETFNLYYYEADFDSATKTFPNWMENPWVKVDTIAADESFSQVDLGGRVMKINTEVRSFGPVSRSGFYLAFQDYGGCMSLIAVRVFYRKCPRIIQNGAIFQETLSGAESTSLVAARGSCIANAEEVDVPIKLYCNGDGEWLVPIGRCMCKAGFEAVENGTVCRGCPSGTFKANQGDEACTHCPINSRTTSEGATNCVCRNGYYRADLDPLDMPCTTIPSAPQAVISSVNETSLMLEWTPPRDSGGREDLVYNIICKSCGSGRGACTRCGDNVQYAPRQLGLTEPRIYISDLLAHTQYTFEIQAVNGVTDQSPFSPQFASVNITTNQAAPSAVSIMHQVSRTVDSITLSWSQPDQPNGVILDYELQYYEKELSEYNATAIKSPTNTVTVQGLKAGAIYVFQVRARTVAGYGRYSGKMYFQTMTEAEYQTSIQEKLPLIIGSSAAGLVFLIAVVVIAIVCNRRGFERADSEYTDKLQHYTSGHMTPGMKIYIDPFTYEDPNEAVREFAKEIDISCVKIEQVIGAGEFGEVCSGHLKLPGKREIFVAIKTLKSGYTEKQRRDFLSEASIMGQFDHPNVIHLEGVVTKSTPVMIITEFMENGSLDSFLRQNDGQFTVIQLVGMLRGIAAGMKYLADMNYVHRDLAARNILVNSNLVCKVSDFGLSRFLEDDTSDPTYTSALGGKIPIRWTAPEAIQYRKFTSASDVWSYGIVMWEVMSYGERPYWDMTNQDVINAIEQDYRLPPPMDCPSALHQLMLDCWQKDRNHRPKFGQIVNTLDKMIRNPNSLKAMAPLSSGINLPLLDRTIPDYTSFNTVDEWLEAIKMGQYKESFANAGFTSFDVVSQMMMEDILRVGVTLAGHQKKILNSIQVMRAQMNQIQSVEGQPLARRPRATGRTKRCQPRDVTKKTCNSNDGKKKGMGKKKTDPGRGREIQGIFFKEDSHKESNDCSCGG

[6] = target: T2, Myosin-IIIb (Homo sapiens) (UniProt Q8WXR4); assay: Inhibition of MYO3B (unknown origin) assessed as residual activity at 100 nM by KINOMEscan analysis relative to control
T2 sequence (whole entry): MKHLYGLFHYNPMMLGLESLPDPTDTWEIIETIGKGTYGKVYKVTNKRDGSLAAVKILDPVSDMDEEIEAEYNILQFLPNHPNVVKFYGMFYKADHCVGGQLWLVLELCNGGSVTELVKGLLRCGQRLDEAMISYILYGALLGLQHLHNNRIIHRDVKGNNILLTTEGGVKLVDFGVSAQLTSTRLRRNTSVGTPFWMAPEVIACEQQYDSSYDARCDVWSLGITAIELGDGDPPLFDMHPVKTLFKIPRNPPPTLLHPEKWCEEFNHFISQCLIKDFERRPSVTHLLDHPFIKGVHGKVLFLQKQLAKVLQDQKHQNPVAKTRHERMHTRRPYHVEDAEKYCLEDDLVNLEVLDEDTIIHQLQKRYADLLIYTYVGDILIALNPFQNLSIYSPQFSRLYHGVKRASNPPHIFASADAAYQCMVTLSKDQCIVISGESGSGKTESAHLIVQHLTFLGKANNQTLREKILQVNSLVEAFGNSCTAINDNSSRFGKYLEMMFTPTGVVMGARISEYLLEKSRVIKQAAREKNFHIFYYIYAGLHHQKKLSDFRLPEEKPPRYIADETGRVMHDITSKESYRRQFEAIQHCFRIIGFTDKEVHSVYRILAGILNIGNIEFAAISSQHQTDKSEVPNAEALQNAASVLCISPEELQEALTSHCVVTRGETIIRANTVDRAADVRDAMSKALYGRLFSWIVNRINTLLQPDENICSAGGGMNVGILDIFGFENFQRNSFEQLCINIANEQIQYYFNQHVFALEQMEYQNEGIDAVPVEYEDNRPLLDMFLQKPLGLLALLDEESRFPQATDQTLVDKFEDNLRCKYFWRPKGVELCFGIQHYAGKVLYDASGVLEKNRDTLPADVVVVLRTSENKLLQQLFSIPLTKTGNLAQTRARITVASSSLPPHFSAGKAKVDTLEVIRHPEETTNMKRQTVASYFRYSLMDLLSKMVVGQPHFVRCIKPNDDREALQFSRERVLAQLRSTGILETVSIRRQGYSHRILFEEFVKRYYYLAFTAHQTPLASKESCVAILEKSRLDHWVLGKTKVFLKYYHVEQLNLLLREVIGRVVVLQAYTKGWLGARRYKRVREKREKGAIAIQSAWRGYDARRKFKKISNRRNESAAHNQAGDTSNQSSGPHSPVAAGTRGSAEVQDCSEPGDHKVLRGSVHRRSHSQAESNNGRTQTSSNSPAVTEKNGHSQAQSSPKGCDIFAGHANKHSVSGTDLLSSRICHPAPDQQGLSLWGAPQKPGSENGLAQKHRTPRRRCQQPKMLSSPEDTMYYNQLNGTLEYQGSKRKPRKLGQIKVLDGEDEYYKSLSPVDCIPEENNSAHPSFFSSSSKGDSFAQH

[7] = tested on: Epidermal growth factor receptor (Homo sapiens), P00533 [G719S]; assay: Inhibition of EGFR G719S mutant (unknown origin) assessed as residual activity at 100 nM by KINOMEscan analysis relative to control

Sequence of Tyrosine-protein kinase ABL1 (Homo sapiens) (P00519 whole entry): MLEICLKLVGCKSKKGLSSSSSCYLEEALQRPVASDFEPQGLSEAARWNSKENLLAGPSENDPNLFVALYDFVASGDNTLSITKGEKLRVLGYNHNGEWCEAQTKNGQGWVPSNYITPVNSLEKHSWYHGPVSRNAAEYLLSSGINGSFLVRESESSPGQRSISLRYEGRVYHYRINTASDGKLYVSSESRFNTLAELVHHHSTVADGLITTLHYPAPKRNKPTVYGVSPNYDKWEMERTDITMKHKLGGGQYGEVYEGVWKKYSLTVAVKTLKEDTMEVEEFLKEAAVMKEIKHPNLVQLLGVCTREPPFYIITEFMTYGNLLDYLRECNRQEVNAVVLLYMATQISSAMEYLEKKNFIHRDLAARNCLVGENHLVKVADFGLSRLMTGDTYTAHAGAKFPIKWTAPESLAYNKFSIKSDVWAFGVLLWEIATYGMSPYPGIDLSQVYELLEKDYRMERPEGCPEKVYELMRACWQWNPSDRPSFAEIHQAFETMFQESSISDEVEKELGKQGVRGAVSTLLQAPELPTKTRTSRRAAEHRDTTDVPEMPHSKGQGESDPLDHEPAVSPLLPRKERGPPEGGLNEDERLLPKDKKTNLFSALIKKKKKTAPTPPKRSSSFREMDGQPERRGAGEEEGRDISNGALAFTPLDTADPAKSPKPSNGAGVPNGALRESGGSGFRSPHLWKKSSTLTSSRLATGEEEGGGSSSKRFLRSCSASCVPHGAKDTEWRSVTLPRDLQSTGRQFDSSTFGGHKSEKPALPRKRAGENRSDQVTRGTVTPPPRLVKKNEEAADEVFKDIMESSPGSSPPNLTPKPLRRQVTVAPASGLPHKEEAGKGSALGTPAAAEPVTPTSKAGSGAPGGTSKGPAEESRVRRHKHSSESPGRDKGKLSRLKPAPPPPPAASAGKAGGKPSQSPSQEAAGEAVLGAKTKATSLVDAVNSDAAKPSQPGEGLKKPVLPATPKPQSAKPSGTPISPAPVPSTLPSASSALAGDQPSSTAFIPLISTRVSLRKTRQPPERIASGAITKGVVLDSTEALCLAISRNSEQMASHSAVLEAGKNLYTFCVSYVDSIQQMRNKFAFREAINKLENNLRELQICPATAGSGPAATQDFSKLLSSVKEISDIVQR
Sequence of Mitogen-activated protein kinase 1 (Homo sapiens) (P28482 whole entry): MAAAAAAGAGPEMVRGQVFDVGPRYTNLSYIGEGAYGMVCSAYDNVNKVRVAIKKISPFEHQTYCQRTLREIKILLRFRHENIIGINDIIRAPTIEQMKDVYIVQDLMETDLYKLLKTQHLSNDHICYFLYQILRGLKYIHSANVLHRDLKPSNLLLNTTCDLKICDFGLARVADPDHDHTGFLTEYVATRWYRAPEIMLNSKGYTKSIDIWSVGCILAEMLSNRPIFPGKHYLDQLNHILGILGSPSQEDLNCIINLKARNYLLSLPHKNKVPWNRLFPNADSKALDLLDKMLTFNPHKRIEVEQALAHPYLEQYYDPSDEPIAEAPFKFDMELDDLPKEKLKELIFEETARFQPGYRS
Sequence of Serine/threonine-protein kinase pim-1 (Homo sapiens) (P11309 whole entry, looked up): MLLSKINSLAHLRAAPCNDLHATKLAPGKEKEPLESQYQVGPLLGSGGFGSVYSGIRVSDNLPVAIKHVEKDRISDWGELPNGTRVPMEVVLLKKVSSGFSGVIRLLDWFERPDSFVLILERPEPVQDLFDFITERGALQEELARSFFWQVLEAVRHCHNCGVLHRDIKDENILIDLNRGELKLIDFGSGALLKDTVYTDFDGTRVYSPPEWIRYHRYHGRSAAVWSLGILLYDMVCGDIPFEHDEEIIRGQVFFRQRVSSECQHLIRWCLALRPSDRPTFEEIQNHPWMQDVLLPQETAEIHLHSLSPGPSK
Sequence of Citron Rho-interacting kinase (Homo sapiens) (O14578 whole entry): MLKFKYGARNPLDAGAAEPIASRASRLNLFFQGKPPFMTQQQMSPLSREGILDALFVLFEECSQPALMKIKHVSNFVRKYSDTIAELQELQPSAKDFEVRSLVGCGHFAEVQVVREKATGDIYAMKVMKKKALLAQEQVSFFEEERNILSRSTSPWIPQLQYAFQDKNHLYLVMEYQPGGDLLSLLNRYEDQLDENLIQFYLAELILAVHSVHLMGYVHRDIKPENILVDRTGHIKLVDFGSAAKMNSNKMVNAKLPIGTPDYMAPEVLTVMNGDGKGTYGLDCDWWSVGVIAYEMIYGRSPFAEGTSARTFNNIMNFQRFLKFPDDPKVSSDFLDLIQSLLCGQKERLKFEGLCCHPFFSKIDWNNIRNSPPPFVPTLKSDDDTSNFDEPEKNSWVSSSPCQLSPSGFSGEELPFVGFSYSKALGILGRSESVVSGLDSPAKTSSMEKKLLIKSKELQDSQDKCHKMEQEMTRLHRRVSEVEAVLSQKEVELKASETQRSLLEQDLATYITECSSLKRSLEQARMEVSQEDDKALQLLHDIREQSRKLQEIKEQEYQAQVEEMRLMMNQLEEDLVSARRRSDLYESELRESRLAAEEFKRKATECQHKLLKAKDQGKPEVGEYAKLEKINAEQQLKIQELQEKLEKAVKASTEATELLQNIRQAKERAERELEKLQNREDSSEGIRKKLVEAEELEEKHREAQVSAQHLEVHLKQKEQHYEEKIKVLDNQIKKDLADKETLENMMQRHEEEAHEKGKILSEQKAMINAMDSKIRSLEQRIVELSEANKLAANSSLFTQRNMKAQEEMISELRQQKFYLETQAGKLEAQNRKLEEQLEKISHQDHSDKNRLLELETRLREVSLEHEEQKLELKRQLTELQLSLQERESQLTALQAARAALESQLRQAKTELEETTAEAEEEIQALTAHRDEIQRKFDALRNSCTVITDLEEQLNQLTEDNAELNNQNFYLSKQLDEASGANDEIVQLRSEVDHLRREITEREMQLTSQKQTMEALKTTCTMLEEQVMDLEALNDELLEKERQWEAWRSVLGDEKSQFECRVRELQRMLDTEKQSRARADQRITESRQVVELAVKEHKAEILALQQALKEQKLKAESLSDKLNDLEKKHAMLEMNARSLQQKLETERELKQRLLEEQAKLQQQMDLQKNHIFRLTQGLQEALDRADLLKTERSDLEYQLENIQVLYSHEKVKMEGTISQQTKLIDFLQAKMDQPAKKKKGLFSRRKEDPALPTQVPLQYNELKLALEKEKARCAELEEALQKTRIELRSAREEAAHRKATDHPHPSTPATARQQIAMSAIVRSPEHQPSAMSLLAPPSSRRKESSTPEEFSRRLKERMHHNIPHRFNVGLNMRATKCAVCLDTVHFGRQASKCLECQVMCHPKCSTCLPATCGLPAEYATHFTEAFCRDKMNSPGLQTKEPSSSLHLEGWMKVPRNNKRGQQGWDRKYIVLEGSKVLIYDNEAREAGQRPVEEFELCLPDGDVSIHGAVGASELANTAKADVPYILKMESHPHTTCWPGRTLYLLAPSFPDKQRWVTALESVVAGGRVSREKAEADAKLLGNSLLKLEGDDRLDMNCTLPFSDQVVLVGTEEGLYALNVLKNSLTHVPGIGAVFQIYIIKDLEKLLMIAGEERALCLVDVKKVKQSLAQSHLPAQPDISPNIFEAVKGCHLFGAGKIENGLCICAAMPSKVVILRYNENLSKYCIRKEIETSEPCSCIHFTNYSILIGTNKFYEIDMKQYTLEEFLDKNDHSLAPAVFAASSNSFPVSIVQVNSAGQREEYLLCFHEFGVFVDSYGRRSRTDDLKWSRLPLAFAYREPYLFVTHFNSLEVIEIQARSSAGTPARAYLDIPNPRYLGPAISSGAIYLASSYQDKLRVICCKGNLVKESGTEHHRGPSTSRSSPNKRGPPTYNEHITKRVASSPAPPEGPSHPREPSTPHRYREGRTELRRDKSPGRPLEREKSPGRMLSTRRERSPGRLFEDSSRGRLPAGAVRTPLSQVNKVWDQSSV

COc1cc2ncnc(N[C@H](C)c3cccc4ccccc34)c2cc1OC
Activity [1]: 72%
Activity [2]: 93%
Activity [3]: 83%
Activity [4]: 89%
Activity [5]: 85%
Activity [6]: 98%
Activity [7]: 96%

— ChEMBL document CHEMBL5678818, “Discovery of potent SOS1 inhibitors that block RAS activation via disruption of the RAS-SOS1 interaction” (Proc Natl Acad Sci U S A, 2019)
